# System: C3H10T1/2 mouse embryonic fibroblast cells
# Assay: Fibroblast-to-myoblast conversion assay
# Type: cell-based
# Excerpt: FIGS. 4A-4H depict targeted demethylation of the MyoD distal enhancer by dCas9-Tet1 to facilitate conversion of fibroblasts to myoblasts. FIG. 4A provides a schematic representation of targeting the MyoD distal enhancer (DE) region in DMR-5 by dCas9-Tet1 (dC-T) with specific gRNAs. […] Cherry positive cells were FACS sorted for RT-qPCR analysis. Bars represent mean±SD of three experimental replicates. FIG. 4C bisulfite sequencing of cells in FIG. 4B. […] Shown is the mean percentage±SD of two biological replicates. […] C3H10T1/2 cells were plated as 1×10^4 cells per well in 6-well plate, and then infected with lentiviruses expressing dC-T and gRNAs targeting DMR-5, or a catalytic dead form of Tet1 (dC-dT) with target gRNAs. 24-hour post infection, cells were treated with vehicle control (HEPES buffer) or 5-Azacytidine (1 uM) for 24-hour, and then harvested after 14 days for immunofluorescence staining. Stained in green for MyoD, magenta for MHC and blue for DAPI. Scale bar: 200 um. FIG. 4F provides quantification of MyoD positive cell ratio 14-day post infection with lentiviruses expressing dC-T alone, dC-T with gRNAs targeting DMR-5, and dC-dT with the target gRNAs. […] FIG. 4H provides quantification of myotube density in MHC positive clusters with more than 2 or 5 nuclei at 14-days after infection. […] Data are quantified from 3-5 representative images for F-H. Bars represent mean±SD.
# FIGS. 12A-12J depict targeted demethylation of the MyoD DMR-5 by dCas9-Tet1 and conversion of fibroblasts to myoblasts. […] PAM for each sgRNA is highlighted by a red box. FIG. 12B provides experimental scheme of the fibroblast-to-myoblast conversion assay. Briefly, C3H10T1/2 mouse embryonic fibroblast cells were plated as 1×10^4 cells per well in 6-well plate, and then infected with lentiviruses expressing dCas9-Tet1 and target gRNAs. 24-hour post infection, cells were optionally treated with 5-Azacytidine (1 uM) for 24-hour (labeled in red), and harvested for immunofluorescence staining at different time points (day-14, -16 and -25, labeled in dark blue) with medium change every other day. Scale bar: 100 um. […] Stained in green for MHC, red for MyoD and blue for DAPI. Scale bar: 200 um. FIG. 12D depicts a fraction of mock C3H10T1/2 cells expressing MyoD at different times after 5-Aza treatment. The fraction of cells expressing MyoD increases from around 6% at day 14 to around 13% at day 16 and reached around 20% at day 25. Bars represent mean±SD. FIG. 12E provides number of nuclei in MHC+ cell clusters (grouped as 1-2 and >2 nuclei per MHC+ cluster). […] Bars represent mean±SD. Data was quantified from 3-5 representative images for each group in FIG. 12D and FIG. 12E. […] Bars represent mean±SD of three experimental replicates. FIG. 12G provides representative images for C3H10T1/2 cells 16 days after infection with lentiviruses expressing dC-T and gRNAs targeting DMR-5 (MyoD distal enhancer) in a fibroblast-to-myoblast conversion assay as described in FIG. 12B. […] Stained in magenta for MHC, green for MyoD and blue for DAPI. Scale bar: 200 um. FIG. 12H depicts a fraction of MyoD positive cells 16 days after infection with lentiviruses expressing dC-T alone or with gRNAs targeting DMR-5. FIG. 12I show a number of nuclei in MHC+ cell clusters (grouped as 2-5, 6-10, 11-20 and >20 nuclei per MHC+ cluster) 16 days after infection. […] Data are quantified from 3-5 representative images for FIGS. 12H-12J. Bars represent mean±SD.
# We then investigated whether targeted demethylation of DMR-5 would synergize with 5-Aza treatment to induce myotube formation (FIG. 12B). To follow the process of myotube formation after 5-Aza treatment, a time-course experiment was performed. Multi-nucleated myotube (MHC-positive) with heterogeneous sizes began to form 14 days post treatment, and both MyoD-positive cell ratio and myotube density and size then increased up to day-25 (FIGS. 12C-12E). […]
substance,measurement,setting,value
"dCas9-Tet1: catalytically inactive Cas9 (dCas9) fused through NLS to the Tet1 catalytic domain, SEQ ID NO: 159; lentivirally expressed with gRNAs",MyoD expression level (immunofluorescence),"with gRNAs targeting DMR-5, 14 days, absence of 5-Aza",moderate expression level of MyoD
same,myotube formation,"with gRNAs targeting DMR-5, 14 days, absence of 5-Aza treatment",not sufficient to induce myotube formation
same,"myotube formation (MHC+ clusters, >2 nuclei per cluster)","with gRNAs targeting MyoD DMR-5 plus 5-Aza, 14 days post-treatment, versus dCas9-Tet1 only or dC-dT",facilitated the myotube formation

# Reference: patent US12060588B2, “Methods of editing DNA methylation” (Whitehead Institute for Biomedical Research, priority 2016, dated 2024)
